In one assay the target is T1, α2-Adrnoceptor (Homo sapiens, UniProt P08913).
T1 construct: from tissue; host or cells: human platelet membranes
T1 sequence (P08913 1-465): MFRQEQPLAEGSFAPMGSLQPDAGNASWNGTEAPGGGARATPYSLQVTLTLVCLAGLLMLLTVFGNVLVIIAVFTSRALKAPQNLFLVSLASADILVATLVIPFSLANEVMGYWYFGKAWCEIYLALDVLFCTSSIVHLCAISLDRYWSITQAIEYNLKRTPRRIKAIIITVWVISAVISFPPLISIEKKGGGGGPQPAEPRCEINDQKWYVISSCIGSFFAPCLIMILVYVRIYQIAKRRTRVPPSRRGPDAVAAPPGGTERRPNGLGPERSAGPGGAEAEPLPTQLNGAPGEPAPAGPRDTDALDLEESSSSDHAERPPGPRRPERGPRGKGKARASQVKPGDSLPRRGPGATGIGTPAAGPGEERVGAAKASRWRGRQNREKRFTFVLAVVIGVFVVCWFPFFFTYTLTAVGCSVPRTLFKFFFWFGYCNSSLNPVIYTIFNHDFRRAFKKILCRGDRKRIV
As to the kind of experiment: α2-Adrenoceptor binding ([3H] Rauwolscine, human platelet membranes). How it is done: Human platelet membranes were incubated with [^3 H] Rauwolscine (0.5-1.0 nM) for 30 minutes at 30° C. with varying concetrates of the drug (0.1-10,000 nM). The binding assay was stopped by filtering and rinsing on GF B glass fibre filters.
Binding Affinity (Ki) was calculated using the Cheng-Prussoff equation.

In assay [1] the test system is Adrenaline-Exacerbated Glucose Intolerance. As to the kind of experiment: Reversal of Adrenaline-Exacerbated Glucose Intolerance in Mice. Format: in vivo, CFLP female mice. The note with it: 20 μmol/kg oral gavage, 30 min before glucose (1 g/kg) and adrenaline (300 μg/kg) s.c.; blood samples 0-120 min; versus water dosed control. How it is done: Reversal of Adrenaline-Exacerbated Glucose Intolerance in Mice CFLP female mice of about 25 g were fasted for 24 hours prior to receiving water (10 ml/kg) or the compound by oral gavage. Thirty minutes later, glucose (1 g/kg) and adrenaline (300 μg/kg) were injected subcutaneously. Blood samples for glucose analysis were taken serially from the tail of each mouse at 0, 30, 60, 90 and 120 minutes after dosing glucose and the results are expressed below as the percentage reduction in the area under the blood glucose curve; the compound treated groups being compared to the water dosed control group. Six mice were used in each treatment group.

Structures can show the parent of a compound that is named as a salt. Where two headings read alike, the source gives them in different places.

For orientation: Ki means the dissociation constant of the complex between target and ligand, obtained from inhibition or displacement. `Clc1ccc2c(c1)CC(NC1=NCCO1)C2` (stereo not shown) [Example 4, 2-[2-(5-Chloro-2,3-dihydro-1H-indene)amino]4,5-dihydrooxazole] yielded an inhibition constant (Ki) on α2-Adrnoceptor of 25 nM. Also, the “% Reduction in area under Blood Glucose Curve” value (“% Reduction in area” for short) in assay [1] was found to be 44%.
On α2-Adrnoceptor, `Cc1ccc2c(c1)CC(NC1=NCCO1)C2` (stereo not shown) [Example 5, 2-[2-(2,3-dihydro-5-methyl-1H-indene)amino]4,5-dihydrooxazole] came in with an inhibition constant (Ki) of 25 nM.
The same measure, in the same setting: with `c1ccc2c(c1)CC(NC1=NCCN1)C2` [Example 2, 2-[2-(2,3-Dihydro-1H-indene)amino)4,5-dihydroimidazole hydrochloride hemihydrate] the figure was 98 nM.
As to `c1ccc2c(c1)CC(NC1=NCCS1)C2` [Example 9, 2-[2-(2,3-Dihydro-1H-indene)amino]4,5-dihydrothiazole], the Ki on α2-Adrnoceptor ([3H] Rauwolscine (0.5-1.0 nM), human platelet membranes, 30 minutes at 30° C., Cheng-Prussoff equation, read-out: Binding Affinity Ki) was 190 nM. Moreover, in assay [1], the “% Reduction in area” value is 33%.
`c1ccc2c(c1)CCC(NC1=NCCO1)C2` (stereo not shown) [Example 8, 2-[2-(1,2,3,4-Tetrahydronaphthyl)amino]4,5-dihydrooxazole]: in assay [1], the “% Reduction in area” value is 18%.
In turn, `C[C@H]1c2ccccc2C[C@@H]1NC1=NCCO1` (relative stereo) [Example 7, 2-[Trans-2-(2,3-dihydro-1-methyl-1H-indene)amino]4,5-dihydrooxazole] showed an inhibition constant Ki on α2-Adrnoceptor of 2 nM.
As for `c1ccc2c(c1)CC(NC1=NCCO1)C2` [Example 1, 2-[2-(2,3-Dihydro-1H-indene)amino]4,5-dihydrooxazole], the inhibition constant Ki on α2-Adrnoceptor amounted to 1 nM. Further, the “% Reduction in area” value in assay [1] was found to be 35%.
At α2-Adrnoceptor, `C[C@H]1c2ccccc2C[C@H]1NC1=NCCO1` (relative stereo) [Example 6, 2-[cis-2-(2,3-dihydro-1-methyl-1H-indene)amino]4,5-dihydrooxazole] gave an inhibitory constant (Ki) of 2 nM.
Take `Clc1cccc2c1CC(NC1=NCCO1)C2` (stereo not shown) [Example 3, 2-[2-(4-Chloro-2,3-dihydro-1H-indene)amino]4,5-dihydrooxazole]: affinity at α2-Adrnoceptor was put at a Ki of 1 nM. Besides, the “% Reduction in area” value in assay [1] stood at 42%.

Source of the values: patent US4861789A, “Dihydro-indene-amine-dihydrooxazoles” (Beecham Group plc, priority 1986, dated 1989).
